{"source": "ChEMBL document CHEMBL1201862", "about": "“PubChem BioAssay data set” (2004)", "assay_in_all_cases": "DTP human tumour cell line panel, 48 h", "key": {"U-251": {"tested_on": "U-251"}, "ACHN": {"tested_on": "ACHN"}, "OVCAR-4": {"tested_on": "OVCAR-4"}, "A498": {"tested_on": "A498"}, "SK-MEL-28": {"tested_on": "SK-MEL-28"}, "DMS-273": {"tested_on": "DMS-273"}, "HT-29": {"tested_on": "HT-29"}, "SK-MEL-5": {"tested_on": "SK-MEL-5"}, "UO-31": {"tested_on": "UO-31"}, "CAKI-1": {"tested_on": "CAKI-1"}, "HCT-116": {"tested_on": "HCT-116"}, "NCI-H460": {"tested_on": "NCI-H460"}, "RPMI-8226": {"tested_on": "RPMI-8226"}, "MDA-MB-231": {"tested_on": "MDA-MB-231"}, "K562": {"tested_on": "K562"}, "SR": {"tested_on": "SR"}, "Hs-578T": {"tested_on": "Hs-578T"}, "XF498": {"tested_on": "XF498"}, "KM12": {"tested_on": "KM12"}, "Malme-3M": {"tested_on": "Malme-3M"}}, "note": "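1) Cells in 96-well plates. 2) Compound, 48 h, 5 concentrations. 3) Linear interpolation between surrounding doses. 4) Unreached endpoint = highest concentration. GI50 = concentration required for 50% inhibition of growth.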 Calls of active or inactive are those of the source. Cut-off read from the data, not from the text of the source: active = GI50 up to about 1.1 µM and inactive = higher."}
{"smiles": "C#CCN1CCN(C(=S)N/N=C(\\C)c2ccccn2)CC1", "values": [{"measurement": "GI50", "setting": "U-251", "result": "0.0189 µM (active)"}, {"measurement": "GI50", "setting": "ACHN", "result": "0.044 µM (active)"}, {"measurement": "GI50", "setting": "OVCAR-4", "result": "0.35 µM (active)"}, {"measurement": "GI50", "setting": "A498", "result": "2.15 µM (inactive)"}, {"measurement": "GI50", "setting": "SK-MEL-28", "result": "1.36 µM (inactive)"}, {"measurement": "GI50", "setting": "DMS-273", "result": "< 0.0161 µM (active)"}, {"measurement": "GI50", "setting": "HT-29", "result": "0.115 µM (active)"}, {"measurement": "GI50", "setting": "SK-MEL-5", "result": "1.36 µM (inactive)"}, {"measurement": "GI50", "setting": "UO-31", "result": "0.634 µM (active)"}, {"measurement": "GI50", "setting": "CAKI-1", "result": "1.42 µM (inactive)"}, {"measurement": "GI50", "setting": "HCT-116", "result": "0.001 µM (active)"}, {"measurement": "GI50", "setting": "NCI-H460", "result": "0.619 µM (active)"}, {"measurement": "GI50", "setting": "RPMI-8226", "result": "0.01 µM (active)"}, {"measurement": "GI50", "setting": "MDA-MB-231", "result": "1.28 µM (inactive)"}, {"measurement": "GI50", "setting": "K562", "result": "0.01 µM (active)"}, {"measurement": "GI50", "setting": "SR", "result": "0.011 µM (active)"}, {"measurement": "GI50", "setting": "Hs-578T", "result": "1.74 µM (inactive)"}, {"measurement": "GI50", "setting": "XF498", "result": "0.01 µM (active)"}, {"measurement": "GI50", "setting": "KM12", "result": "0.161 µM (active)"}, {"measurement": "GI50", "setting": "Malme-3M", "result": "1 µM (active)"}]}
{"smiles": "Cc1cccc(NC(=O)c2cccc([N+](=O)[O-])c2O)c1C", "values": [{"measurement": "GI50", "setting": "U-251", "result": "25.3 µM (inactive)"}, {"measurement": "GI50", "setting": "ACHN", "result": "28.6 µM (inactive)"}, {"measurement": "GI50", "setting": "OVCAR-4", "result": "26.6 µM (inactive)"}, {"measurement": "GI50", "setting": "A498", "result": "28.5 µM (inactive)"}, {"measurement": "GI50", "setting": "SK-MEL-28", "result": "44.5 µM (inactive)"}, {"measurement": "GI50", "setting": "DMS-273", "result": "22.2 µM (inactive)"}, {"measurement": "GI50", "setting": "HT-29", "result": "27.7 µM (inactive)"}, {"measurement": "GI50", "setting": "SK-MEL-5", "result": "9.62 µM (inactive)"}, {"measurement": "GI50", "setting": "UO-31", "result": "17.9 µM (inactive)"}, {"measurement": "GI50", "setting": "CAKI-1", "result": "27.4 µM (inactive)"}, {"measurement": "GI50", "setting": "HCT-116", "result": "28.2 µM (inactive)"}, {"measurement": "GI50", "setting": "NCI-H460", "result": "20.6 µM (inactive)"}, {"measurement": "GI50", "setting": "RPMI-8226", "result": "3.14 µM (inactive)"}, {"measurement": "GI50", "setting": "MDA-MB-231", "result": "37.9 µM (inactive)"}, {"measurement": "GI50", "setting": "K562", "result": "12.1 µM (inactive)"}, {"measurement": "GI50", "setting": "SR", "result": "20.1 µM (inactive)"}, {"measurement": "GI50", "setting": "Hs-578T", "result": "43.6 µM (inactive)"}, {"measurement": "GI50", "setting": "XF498", "result": "20.3 µM (inactive)"}, {"measurement": "GI50", "setting": "KM12", "result": "23.6 µM (inactive)"}, {"measurement": "GI50", "setting": "Malme-3M", "result": "33.8 µM (inactive)"}]}
{"smiles": "COc1ccc(/C(=C\\c2cc(OC)c(OC)c(OC)c2)C(=O)O)cc1", "values": [{"measurement": "GI50", "setting": "U-251", "result": "44.6 µM (inactive)"}, {"measurement": "GI50", "setting": "ACHN", "result": "72.8 µM (inactive)"}, {"measurement": "GI50", "setting": "OVCAR-4", "result": "85.7 µM (inactive)"}, {"measurement": "GI50", "setting": "A498", "result": "15.9 µM (inactive)"}, {"measurement": "GI50", "setting": "SK-MEL-28", "result": "76.4 µM (inactive)"}, {"measurement": "GI50", "setting": "DMS-273", "result": "23.3 µM (inactive)"}, {"measurement": "GI50", "setting": "HT-29", "result": "35.6 µM (inactive)"}, {"measurement": "GI50", "setting": "SK-MEL-5", "result": "16 µM (inactive)"}, {"measurement": "GI50", "setting": "UO-31", "result": "25.6 µM (inactive)"}, {"measurement": "GI50", "setting": "CAKI-1", "result": "30.4 µM (inactive)"}, {"measurement": "GI50", "setting": "HCT-116", "result": "29 µM (inactive)"}, {"measurement": "GI50", "setting": "NCI-H460", "result": "35.6 µM (inactive)"}, {"measurement": "GI50", "setting": "RPMI-8226", "result": "27.4 µM (inactive)"}, {"measurement": "GI50", "setting": "K562", "result": "25.8 µM (inactive)"}, {"measurement": "GI50", "setting": "SR", "result": "38.8 µM (inactive)"}, {"measurement": "GI50", "setting": "XF498", "result": "11.1 µM (inactive)"}, {"measurement": "GI50", "setting": "KM12", "result": "25.4 µM (inactive)"}, {"measurement": "GI50", "setting": "Malme-3M", "result": "55.3 µM (inactive)"}]}
{"smiles": "CN(C)CC1CC/C(=C\\c2ccc3c(c2)OCO3)C1=O", "note": "(stereo not drawn)", "values": [{"measurement": "GI50", "setting": "U-251", "result": "18.3 µM (inactive)"}, {"measurement": "GI50", "setting": "ACHN", "result": "13.9 µM (inactive)"}, {"measurement": "GI50", "setting": "OVCAR-4", "result": "9.29 µM (inactive)"}, {"measurement": "GI50", "setting": "A498", "result": "19 µM (inactive)"}, {"measurement": "GI50", "setting": "SK-MEL-28", "result": "10.5 µM (inactive)"}, {"measurement": "GI50", "setting": "DMS-273", "result": "16.8 µM (inactive)"}, {"measurement": "GI50", "setting": "HT-29", "result": "14.5 µM (inactive)"}, {"measurement": "GI50", "setting": "SK-MEL-5", "result": "14.2 µM (inactive)"}, {"measurement": "GI50", "setting": "UO-31", "result": "10.6 µM (inactive)"}, {"measurement": "GI50", "setting": "CAKI-1", "result": "8.89 µM (inactive)"}, {"measurement": "GI50", "setting": "HCT-116", "result": "6.75 µM (inactive)"}, {"measurement": "GI50", "setting": "NCI-H460", "result": "19.5 µM (inactive)"}, {"measurement": "GI50", "setting": "RPMI-8226", "result": "1.85 µM (inactive)"}, {"measurement": "GI50", "setting": "MDA-MB-231", "result": "2.38 µM (inactive)"}, {"measurement": "GI50", "setting": "K562", "result": "2.83 µM (inactive)"}, {"measurement": "GI50", "setting": "SR", "result": "2.82 µM (inactive)"}, {"measurement": "GI50", "setting": "Hs-578T", "result": "4.38 µM (inactive)"}, {"measurement": "GI50", "setting": "XF498", "result": "18.3 µM (inactive)"}, {"measurement": "GI50", "setting": "KM12", "result": "6.79 µM (inactive)"}, {"measurement": "GI50", "setting": "Malme-3M", "result": "9.46 µM (inactive)"}]}
